Source: patent publication US7547532B2, “Three-dimensional structure of prostaglandin D synthase and utilization thereof” (Japan Science and Technology Agency, priority 2001, dated 2009)
Blank lines part the entries; values can stand above or below the compound they belong to.

How the values were obtained:
allergic reaction = settings: known from Matsushita et al. 1998, various experimental models; cited from earlier work
[1] = cited from earlier work
sleep condition = settings: administered in the ventricle of the brain of a mouse; cited from earlier work
hematopoietic PGDS = hematopoietic PGDS (Homo sapiens, UniProt O60760); experiment: PGDS enzymatic activity: conversion of PGH2 to PGD2 (confirmation of inhibitors); format: biochemical; settings: metal ion in center of PGDS dimer
Text: After a candidate compound for inhibition of hematopoietic PGDS is thus selected, the selected compound is contacted with the enzyme in the presence of the substrate (prostaglandin H2) to confirm the compound can inhibit the enzymatic activity (Shimizu, T., Yamamoto, S., and Hayaishi, O. (1979). Purification and properties of prostaglandin D synthase from rat brain. J. Biol. Chem. 254, 5222-5228). The measurement of enzymatic activity is, for example, carried out as follows: The substrate [1-^14C]prostaglandin(PG)H2 is prepared by reacting [1-^14C]arachidonic acid with cyclooxygenase. Since PGH2 is easily decomposed in aqueous solution (half-life: about 5 minutes), it is dried and stored at a low temperature (−80° C.). […] After the development, radioactivity of PGD2 fraction and other fraction are measured and the enzyme activity is calculated from the ratio of conversion to PGD2.
Alternatively, enzyme reaction is carried out using commercially available non-labeled PGH2. After the reaction, PGH2 is decomposed to 12(S)-hydroxy-8,10-trans-5-cis-heptadecatrienolic acid with the treatment by FeCl2 before quantifying with reverse phase HPLC using 11-β-PGE2 as an internal standard or commercially available ELISA to quantify PGD2.

human hematopoietic PGDS = molecular target: T1, human hematopoietic PGDS (Homo sapiens, UniProt O60760, N144M); experiment: Glutathione binding/affinity to PGDS with metal ion; settings: metal ion in center of PGDS dimer
T1 construct: made in house; host or cells: Escherichia coli BL21 (DE-3), plasmid pT7-7hPGDS
T1 sequence (O60760 2-199 N144M): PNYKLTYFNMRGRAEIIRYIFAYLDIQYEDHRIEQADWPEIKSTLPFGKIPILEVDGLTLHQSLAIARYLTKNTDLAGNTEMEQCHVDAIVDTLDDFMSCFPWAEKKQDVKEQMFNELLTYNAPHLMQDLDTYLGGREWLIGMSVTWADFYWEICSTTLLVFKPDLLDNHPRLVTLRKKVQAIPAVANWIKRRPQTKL

hematopoietic PGDS, sequence (O60760 whole entry): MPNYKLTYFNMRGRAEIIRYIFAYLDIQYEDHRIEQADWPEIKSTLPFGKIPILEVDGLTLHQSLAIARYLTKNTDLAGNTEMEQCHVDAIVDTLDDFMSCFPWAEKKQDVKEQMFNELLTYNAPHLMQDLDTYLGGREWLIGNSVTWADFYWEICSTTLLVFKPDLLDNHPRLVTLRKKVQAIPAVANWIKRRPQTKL

Compound: c1ccc(C(OC2CCN(CCCc3nnn[nH]3)CC2)c2ccccc2)cc1 [HQL-79, 4-benzhydryloxy-1-{3-(1H-tetrazol-5-yl)-propyl}piperidine]
anti-allergic activity (allergic reaction): anti-allergic activity

Compound: CCCCC[C@H](O)/C=C/[C@@H]1[C@@H](C/C=C\CCCC(=O)O)[C@@H]2C[C@H]1OO2 [PGH2, prostaglandin H2]
half-life in aqueous solution [1]: about 5 minutes

Compound: CCCCC[C@H](O)/C=C/[C@H]1C(=O)C[C@H](O)[C@@H]1C/C=C\CCCC(=O)O [prostaglandin D2, Prostaglandin D2]
effect on sleep (sleep condition): sleep is induced

influence on glutathione binding (human hematopoietic PGDS): no influence on the glutathione binding
Compound: Calcium
effect on reaction rate of PGDS enzyme (hematopoietic PGDS): increases the reaction rate of PGDS enzyme

increase of affinity of glutathione to PGDS (human hematopoietic PGDS): more than 3 times
Compound: Magnesium
